Source: patent publication US9334487B2, “Methods for diagnosing rheumatoid arthritis” (Imperial Innovations Limited, priority 2007, dated 2016)
“And” between values parts separate entries of the source, which are not always exact repeats. Identical values can stand only once. “Also recorded” adds a separate entry of the source. Bridges are numbered along the chain shown (N, C = ends). Where no end group is shown, it is not given here. [ ]: non-standard residue; d: D form. Cit = NC(=O)NCCC[C@H](N)C(=O)O

Key:
[1] = tested on: anti-Peptide 1A and anti-CCP antibodies in serum; experiment: Serology over time in 24 RA patients treated with MTX or MTX+INF; format: binding, human
From the text: Serum samples were obtained with informed consent and ethical approval from 102 patients with RA and 92 (or 110 patients for the results generally shown in FIGS. 9 to 16) patients with other arthritidies (including systemic lupus erythematosus (n=32), Sjogrens syndrome (n=31), psoriatic arthritis (n=5), Behçet's syndrome (n=18; FIGS. 9 to 16) and miscellaneous other rheumatic diseases (n=24). 92 control serum samples were obtained from healthy volunteers. An additional cohort of 24 patients with RA undergoing treatment with either methotrexate (MTX) alone (n=13) or methotrexate in combination with Infliximab (INF) (n=11) were collected before treatment as well as 6, 18 and 52 weeks post treatment. Disease activity score (DAS 28), erythrocyte sedimentation rate (ESR) and C-reactive protein (CRP) were measured for each patient at the same time points, i.e. 0, 6, 18 an 52 weeks post treatment. […]
96-well plates (Maxisorp; Nunc, Roskilde, Denmark) were coated with α-enolase peptides at 10 μg/ml (diluted in a 50 mM carbonate buffer, pH 9.6), or with carbonate buffer alone, and incubated over night at 4° C. […] After a final wash (PBS-Tween, 0.05%), bound antibodies were detected with TMB substrate (KPL, Maryland, USA). The reaction was stopped by the addition of 1M H2SO4 and absorbance measured at 450 nm in a Multiscan Ascent microplate reader (Thermo Labsystems). […]

[2] = Disease activity score DAS28 (CRP and ESR) in treated RA patients; format: in vivo, human; settings: 6, 18 and 52 weeks post treatment; MTX n=13, MTX+INF n=11
From the text: (§1) Serum samples were obtained with informed consent and ethical approval from 102 patients with RA and 92 (or 110 patients for the results generally shown in FIGS. 9 to 16) patients with other arthritidies (including systemic lupus erythematosus (n=32), Sjogrens syndrome (n=31), psoriatic arthritis (n=5), Behçet's syndrome (n=18; FIGS. 9 to 16) and miscellaneous other rheumatic diseases (n=24). 92 control serum samples were obtained from healthy volunteers. An additional cohort of 24 patients with RA undergoing treatment with either methotrexate (MTX) alone (n=13) or methotrexate in combination with Infliximab (INF) (n=11) were collected before treatment as well as 6, 18 and 52 weeks post treatment. Disease activity score (DAS 28), erythrocyte sedimentation rate (ESR) and C-reactive protein (CRP) were measured for each patient at the same time points, i.e. 0, 6, 18 an 52 weeks post treatment. All patients attended the Rheumatology Clinic at Charing Cross Hospital, London. An independent cohort from the US included serum samples from 81 RA patients, taken at baseline in a clinical trial at the Omaha Veterans Affairs Medical Centre, University of Nebraska, USA, and 82 serum samples from healthy volunteers. All RA patients met the American College of Rheumatology (ACR) classification criteria (43).

[3] = tested on: serum antibodies of SLE patients; experiment: ELISA of SLE patient sera on α-enolase peptides (Example 2); format: binding, human; settings: 29 SLE patients; OD450 below 0.1 negative
Description: Sera from 29 patients diagnosed with systemic lupus erythromatosus (SLE) were tested by ELISA for reactivity with 11 citrullinated α-enolase peptides, namely Peptide 1A, 1B, 1D and Peptides 2 to 9 as shown in Table 1. The ELISA assay was as described in Example 1.
The quantity of antibody, from each patient sample, binding to each peptide, is reflected by the OD (450 nm) in the ELISA assay. The OD (450 nm) corresponding to the background (buffer only) was subtracted. The results, after subtraction of background, are depicted in FIG. 8A. All OD (450 nm) values below 0.1 were considered negative (=0).

[4] = tested on: serum IgG of RA patients, disease controls and healthy controls; experiment: ELISA for IgG antibodies to cyclic α-enolase peptides, UK cohort sera; format: binding, human; settings: for % positive, RA (n = 102): UK cohort RA sera; for % positive, RA (n = 102) / % positive, Disease controls (n = 110) / % positive, Healthy controls (n = 92): cut-off OD450 = 0.1
From the text: as §1
Fifteen cyclic 15 to 23-mer peptides were synthesised at Cambridge Research Biochemicals (Cleveland, UK). The peptide sequences corresponded to amino acid sequences in human α-enolase (SwissProt accession number P06733) or P. gingivalis enolase (SwissProt accession number AAQ66821), with the addition of cysteine residues at the amino- and carboxy-termini and the exchange of citrulline for arginine residues at certain positions, as shown in Tablet and Table 2 below.
(§2) 96-well plates (Maxisorp; Nunc, Roskilde, Denmark) were coated with α-enolase peptides at 10 μg/ml (diluted in a 50 mM carbonate buffer, pH 9.6), or with carbonate buffer alone, and incubated over night at 4° C. Wells were washed with PBS-Tween (0.05%) and blocked with 2% BSA (diluted in PBS) for 3 hours at room temperature. Sera were diluted 1:50 in RIA-buffer (10 mM Tris, 1% BSA, 350 mM NaCl, 1% Triton-X, 0.5% Na-deoxychlate, 0.1% SDS) supplemented with 10% FCS, added in duplicates and incubated for 1.5 hour at room temperature. Plates were washed as described above and incubated with peroxidase-conjugated mouse anti-human IgG (Hybridoma Reagent Laboratory, Baltimore, USA) (diluted 1:1000 in RIA-buffer, 10% FCS) for 1 hour at room temperature. After a final wash (PBS-Tween, 0.05%), bound antibodies were detected with TMB substrate (KPL, Maryland, USA). The reaction was stopped by the addition of 1M H2SO4 and absorbance measured at 450 nm in a Multiscan Ascent microplate reader (Thermo Labsystems). A control serum was included on all plates to correct for plate-to-plate variation. Background OD450 (wells coated with only carbonate buffer) was subtracted from peptide OD450 for every serum tested. Values above 0.1 were taken as positive. ELISA on the US serum samples were performed in a similar manner, but with 2% BSA in carbonate buffer as background, and with an OD cut-off of 0.2 for positive samples. Anti-CCP antibody status was analysed using the CCP2 kit (Eurodiagnostica, Malmo, Sweden), according to the manufacturer's instructions.

[5] = tested on: anti-CEP-1 antibodies in anti-CEP-1 positive RA sera; experiment: Liquid phase inhibition of binding to CEP-1-coated plates; design: species or system human; settings: six anti-CEP-1 positive RA sera pre-incubated with 0, 1, 10 and 100 μg/ml peptide
Description: Inhibition experiments were performed in liquid phase on six anti-CEP-1 positive RA serum samples or on solid phase using serum from nine double positive (anti-CEP-1 and CCP positive) RA patients. Sera were either pre-incubated for 2 hours in RIA-buffer containing increasing concentrations (0, 1, 10 and 100 μg/ml) of CEP-1, control peptide 1D, peptide 4, peptide 7, peptide 9 or peptide 11, or pre-absorbed on plates coated with CEP-1, carbonate buffer alone or pre-absorbed on commercial CCP2 plates. To eliminate antigen-antibody complexes, the liquid phase mixtures were centrifuged at 13 000 rpm, for 15 minutes, before the supernatants were transferred to CEP-1-coated plates and assessed as described above Inhibition of binding to CEP-1, for serum samples pre-absorbed to CCP, was calculated in relation to the maximum inhibition, which by definition was set to 100% for samples pre-incubated with CEP-1.

[6] = tested on: serum antibodies of RA patients and healthy controls grouped by CCP status; experiment: ELISA for reactivity with CEP-1, Swedish EIRA cohort (Example 3); format: binding, human
Description: Sera from healthy controls and 511 rheumatoid arthritis patients from the Swedish EIRA (Epidemiological Investigation of Rheumatoid Arthritis) cohort (Stolt et al, Quantification of the influence of cigarette smoking on RA, Ann Rheum Dis, 2003; 62:835-841), were tested for antibodies to cyclic citrullinated peptides using the commercially available anti-CCP ELISA. At least 600 healthy controls were screened and, amongst these, a rare population that were CCP positive (n=16) were identified. Two of these CCP positive individuals have developed RA since the blood samples were collected.
Sera from the 511 rheumatoid arthritis patients, 16 CCP positive healthy controls and 126 CCP negative healthy controls were also screened by ELISA for reactivity with CEP-1 (Peptide 1A) as described in Example 1. The rheumatoid arthritis patients were divided into CCP positive (n=410) and CCP negative (n=101) groups.

[7] = tested on: serum IgG of RA patients and healthy controls (US cohort); experiment: anti-CEP-1 antibody ELISA, independent US cohort; format: binding, human
From the text: as §1
as §2, with “ELISA on the US serum samples were performed in a similar manner, but with 2% BSA in carbonate buffer as background, and with an OD cut-off of 0.2 for positive samples.” left out, “instructions. […]” for “instructions.”

[8] = tested on: serum antibodies of RA patients and healthy controls; settings: seven patients; cited from earlier work
[9] = cut-off 98th percentile of controls

CN(Cc1cnc2nc(N)nc(N)c2n1)c1ccc(C(=O)N[C@@H](CCC(=O)O)C(=O)O)cc1 [MTX, methotrexate]
anti-Peptide 1A antibody levels over time ([1]; pre-treatment, 6, 18 and 52 weeks, not statistically significant): increased | DAS28 (CRP and ESR) change [2]: did not result in such statistically significant decrease; also recorded: did not change significantly

cangwgvmvsh-X-sgetedtc (CANGWGVMVSH[Cit]SGETEDTC; disulfide 1-20 (inferred); listed as Homo sapiens) [Peptide 7, human α-enolase aa 362-379]
% of SLE sera scored positive [3]: 3.4% | % positive, RA (n = 102) [4]: 4% | % positive, Disease controls (n = 110) ([4]; UK cohort): 2% | % positive, Healthy controls (n = 92) ([4]; UK cohort): 2% | inhibition of antibody binding to CEP-1-coated plates [5]: no inhibition | inhibition of antibody binding to CEP-1-coated plates ([5]; listed as peptide 7): did not result in decreased antibody binding

cf-X-sgkydldfkspddps-X-yc (CF[Cit]SGKYDLDFKSPDDPS[Cit]YC; disulfide 1-21 (inferred); listed as Homo sapiens) [Peptide 6, human α-enolase aa 252-270]
% of SLE sera scored positive [3]: 3.4% | % positive, RA (n = 102) [4]: 12% | % positive, Disease controls (n = 110) ([4]; UK cohort): 5% | % positive, Healthy controls (n = 92) ([4]; UK cohort): 0%

ckiha-X-eifds-X-gnptvec (CKIHA[Cit]EIFDS[Cit]GNPTVEC; disulfide 1-19 (inferred); listed as Homo sapiens) [Peptide 1A]
% positive for anti-CEP-1 antibodies, CCP+ RA (n=410) ([6]; Swedish EIRA cohort): Sixty | % positive for anti-CEP-1 antibodies, CCP− RA (n=101) ([6]; Swedish EIRA cohort): 17% | % positive for anti-CEP-1 antibodies, CCP+ healthy controls (n=16) ([6]; Swedish cohort): 25% | % positive for anti-CEP-1 antibodies, CCP− healthy controls (n=126) ([6]; Swedish cohort): 0.8% | specificity, US cohort ([7]; 82 healthy controls, no disease controls): 98% | % RA patients positive / sensitivity, US cohort (n=81) [7, 9]: 62% | % healthy controls positive, US cohort (n=82) [7, 9]: 2% | sensitivity at start of study ([1]; 24 RA patients, nine positive in each treatment group): 75% | % of healthy controls reactive ([4]; UK and US cohorts together): 2% | % positive, RA (n = 102) [4]: 37.3% | % positive, RA (n = 102) ([4]; listed as 1A(CEP-1)): 37% | % of anti-CCP negative RA patients positive ([4]; UK cohort, anti-CCP negative RA sera): 23% | % positive, non-RA patient controls (n=92) ([4]; UK cohort, smaller disease control group): 4.3% | % positive, Disease controls (n = 110) ([4]; UK cohort): 3% | % positive, Healthy controls (n = 92) ([4]; UK cohort): 2.2% and 2% | % positive, Healthy controls (n = 92) ([4]; UK cohort, listed as 1A(CEP-1)): 2% | specificity for RA ([4]; UK cohort, disease controls (92 or 110) and 92 healthy controls): 97% | anti-CEP-1 antibody status of patients with SLE and Behçet's disease ([4]; UK disease controls): uniformly negative | % of individuals without rheumatoid arthritis scored positive ([4]; summary statement): about 3% and ~2% | inhibition of antibody binding to CEP-1-coated plates [5]: dose dependent decrease; also recorded: dose-dependent inhibition

non-citrullinated protein: whole non-citrullinated α-enolase protein
% of RA patients also recognizing the non-citrullinated protein [8]: 13%
